Experimental data: EP3771719A1, “A PEPTIDE BINDING TO TAU-PROTEIN” (Hochschule für angewandte Wissenschaften Fachhochschule …, priority 2019, dated 2021)
Non-standard residues stand in square brackets, D forms with d. No end group written: not given here.

Assays:
tau-protein = assay: ThT aggregation assay of tau-protein with heparin; type: biochemical; conditions: 24 µM tau, 6 µM heparin, 36 h
Protocol: A ThT-aggregation assay of tau was performed for quantifying the relative content of fibrils in the presence of peptides and heparin (6 µM). The concentration of tau-protein was 24 µM, the peptides were added at a ratio of 1:5 and 1:10 (tau-protein:peptide). The fluorescence measured of 24 µM tau-protein after incubation for 36h was arbitrarily set to be 100%, and the measured values and standard deviations of the other incubations are indicated as percentage proportions of this maximum value.
A ThT-aggregation assay of tau was performed for quantifying the relative content of fibrils in the presence of peptides and heparin (6 µM). Here, the D-enantiomers of the peptides and their retro-inverso-versions are used. "retro-inverso-version" as used herein, refers to a sequence wherein the amino acid sequence of one peptide, as read from its N-terminus to its C-terminus, has been reversed, such that the N-terminus and C-terminus of the peptide sequence have been inverted. The concentration of tau-protein was 24 µM, and the peptides MMD2 and MMD2rev were added at a ratio of 1:10. The peptides MMD3 and MMD3rev were added at a ratio of 1:5 and 1:10 (tau-protein:peptide). The fluorescence of tau-protein at 24 µM after an incubation of 36 h was arbitrarily set to be 100% and the measured values and standard deviations of the other incubations are indicated as percentage proportions of this maximum value.
To test the ability of the L-synthesized peptides to inhibit the aggregation of tau in vitro, thioflavin assays were performed. The peptides were added to the aggregation mix in a molar ratio of 1:5 and/or 1:10 (tau:peptide), respectively. As positive control, tau was incubated with heparin without addition of peptides, negative controls were tau alone with THT and buffer including THT. The relative fluorescence of the positive control was set to be 100% after 36 h of incubation and the relative fluorescence of the samples was normalized to the positive control.
To investigate the potential of the selected D-peptides MMD2, MMD2rev, MMD3 and MMD3rev to inhibit fibrillization of full-length tau, thioflavin fluorescence assays were performed. Tau aggregation was initiated by addition heparin to tau protein in a concentration of 24 µM, the mixtures were incubated in absence or presence of the respective peptide in a molar ratio of 1:10, in case of MMD2 as well as MMD2rev, and in molar ratio 1:10 and 1:5, in case of MMD3 and MMD3rev. After 36 hours of incubation, the fluorescence of the tau and heparin control sample reached a saturation level, and the value of fluorescence was set to 100%. […] MMD2 reduce the aggregation of tau to about 90% and MMD2rev reduce the aggregation to about 70%. […] The inventors observed also that ThT fluorescence decreased with increasing concentration of the MMD3 and MMD3rev signifying a robust dose-dependent inhibition of full-length tau aggregation.

PHF6* = assay: Thioflavin T test of PHF6* aggregation; type: biochemical; conditions: 1000 µM peptide, 100 µM PHF6*, 10 µM thioflavin T, RT, ThT fluorescence monitored over 30 h
Protocol: PHF6*-fibrils are fibrils comprising the D-enantiomeric version of tau-peptide VQIINK (SEQ ID NO: 5). Peptides MMD3 and MMD3rev were diluted in sodium phosphate buffer to 1000 µM, and 100 µM PHF6*-solution and 10 µM thioflavin T were added. 100 µM PHF6* and 10 µM thioflavin in Napi-buffer was used as positive control. The negative control was 10 µM thioflavin T in Napi-buffer only. The samples were pipetted into a black 96-well µclear flat-bottom plate and incubated for 30 h,the relative fluorescence (excitation = 440 nm and emission = 480 nm) was determined. Triplicate measurements were performed for each sample.
To test whether MMD3 and MMD3rev reduce PHF6* fibril formation, 1000 µM from the respective peptides were incubated with 100 µM PHF6* at RT, as positive control PHF6* was incubated alone. The relative fluorescence of THT was monitored over 30 h.

tau monomers = assay: ELISA binding of FAM-labeled peptides to tau monomers; conditions: plate coated with 20 µg/ml tau monomers, FAM-labeled peptide in increasing concentrations, absorbance at 450 nm
Protocol: (§1) Peptides were used that had been labeled with a FAM (=5/6-carboxyfluorescein) at the C-terminus. The peptides used were MM2 (= LTPHKHHKHLHA as L-enantiomer = SEQ ID NO: 6) and MM3 (SEQ ID NO: 1), to which a Lys (FAM)-NH2-residue had been attached at the C-terminus, respectively. The wells of a 96-well plate were coated with 20 µg/ml monomeric tau-protein or tau-fibrils and were incubated for 1h. After washing three times with PBS-T (phosphate-buffered saline with 0.1 % tween), the free binding sites were blocked for over a period of 1 hour. The respective peptides MM2-Lys(FAM)-NH2 and MM3-Lys(FAM)-NH2 were added (1 µg/ml, 5 µg/ml, 10 µg/ml, 20 µg/ml) and incubated for 1h. A specific anti-FITC-HRP antibody (anti-fluorescein-isothiocyanate-horseradish-peroxidase) was added in 1:1000 dilution and was incubated for 1h. Thereafter, TMB-substrate was added and incubated for 20 min. After […] of enzyme reaction by addition of 20% sulfuric acid, the absorption at 450 nm was determined. Measurements were performed in triplicate and the average values of the measured absorption of these triplicate samples as well as their standard deviations are shown in figure 1.
(§2) The binding affinity of MMD2 and MMD3 was tested using ELISA. […] The detection was done with anti-FAM HRP antibodies and absorbance was measured at 450 nm. […]

tau fibrils = assay: ELISA binding of FAM-labeled peptides to tau fibrils; conditions: plate coated with 20 µg/ml tau fibrils, FAM-labeled peptide in increasing concentrations, absorbance at 450 nm
Protocol: as §1, §2

PHF6* fibrils = assay: ELISA binding of FAM-labeled peptide to PHF6* fibrils; conditions: plate coated with 50 µg/ml PHF6* fibrils, FAM-labeled peptide 10, 20, 50 µg/ml, absorption at 450 nm
Protocol: As used herein, "PHF6*-fibrils" are fibrils comprising the D-enantiomeric version of tau-peptide VQIINK (SEQ ID NO: 5). The wells of a 96-well plate were coated with 50 µg/ml PHF6*-fibrils and were incubated for 1h. After washing of wells three times with PBS-T (phosphate buffer saline with 0.1 % tween), the free binding sites were blocked for 1 hour. Peptide MMD3-Lys(FAM)-NH2 was added (10 µg/ml, 20 µg/ml and 50 µg/ml) and incubated for 1 h. A specific anti-FITC-HRP-antibody was added at a dilution of 1:1000 and incubated for 1h. Thereafter, TMB-substrate solution was added and incubated for 20 min. After termination of the enzyme reaction by additional 20 % sulfuric acid, absorption at 450 nm was measured. The absorption of the negative control (buffer only) was substracted. Triplicate measurements were performed, at the average values of the measured absorptions of the different samples are shown as well as their respective standard deviations.
To evaluate the binding properties of MMD3 to PHF6* fibrils, ELISA was performed with FAM-labeled version of the peptide. […] The peptide was added in an increasing concentration, the bound peptide was detected with anti-FAM antibodies. After adding the substrate, the absorption at 450 nm, which represents the binding affinities, was measured.

Row | binding to tau monomers (tau monomers) | binding to tau fibrils (tau fibrils) | Substance | aggregation of tau (relative ThT fluorescence, positive control tau + heparin = 100%) (tau-protein; molar ratio 1:5 (tau:peptide)) | aggregation of tau (relative ThT fluorescence, positive control tau + heparin = 100%) (tau-protein; molar ratio 1:10 (tau:peptide)) | inhibition of PHF6* fibril formation (PHF6*) | binding to PHF6* fibrils (PHF6* fibrils)
1 |  |  | ywvsthraklpd ([dY][dW][dV][dS][dT][dH][dR][dA][dK][dL][dP][dD]) [MMD3rev] | inhibited formation of tau aggregates significantly | inhibited formation of tau aggregates significantly | did indeed inhibit the formation of PHF6* fibrils | 
2 | binding could be demonstrated | binding could be demonstrated | dplkarhtsvwy ([dD][dP][dL][dK][dA][dR][dH][dT][dS][dV][dW][dY]) [MMD3] | inhibited formation of tau aggregates significantly | inhibited formation of tau aggregates significantly | did indeed inhibit the formation of PHF6* fibrils | bound to PHF6* fibrils in concentration-dependent manner
3 | binding could be demonstrated | binding could be demonstrated | ltphkhhkhlha [MMD2, reference compound] |  | about 90% |  | 
4 |  |  | ahlhkhhkhptl (AHLHKHHKHPTL; all D-amino acids) [MMD2rev, reference compound] |  | about 70% |  | 
5 |  |  | LTPHKHHKHLHA [MM2, reference compound] | about 50% | nearly complete inhibition |  | 
6 |  |  | DPLKARHTSVWY [MM3] | significantly inhibiting tau fibrils formation | significantly inhibiting tau fibrils formation |  | 
